According to article PMC5817390 (The Pharmacogenomics Journal, 2016):
Like-named read-outs stand apart in the source and are kept apart here. One block for each compound: values may come before it.

Experiments:
[1] = assay type: in vivo, human (healthy subjects); conditions: for AUC(0-inf): AUCinf
[2] = single 60-mg dose, healthy subjects, 14 phase 1 studies; cited from earlier work
[3] = test system: P-glycoprotein (P-gp; MDR1); conditions: in vitro studies; cited from earlier work
[4] = cited from earlier work
[5] = on a molar basis; ref data on file; cited from earlier work
[6] = healthy volunteers; cited from earlier work
[7] = test system: organic anion transporter protein 1B1 (OATP1B1); conditions: in vitro studies; cited from earlier work
[8] = ABCB1 rs1045642 CT, single 60-mg edoxaban, mean±s.d.
[9] = SLCO1B1 rs4149056 C-carriers, single 60-mg edoxaban, mean±s.d.
[10] = SLCO1B1 rs4149056 TT, single 60-mg edoxaban, mean±s.d.
[11] = single 60-mg edoxaban, healthy subjects
[12] = SLCO1B1 rs4149056 C-carriers vs TT homozygotes, with 90% CI
[13] = SLCO1B1 rs4149056 TT, M4 to edoxaban, adjusted for molecular weights, mean±s.d.

AUC0–24 [1, 8]: 1671 ± 420.3 ng·h/mL
AUCinf [1, 8]: 1845 ± 417.8 ng·h/mL
AUC0–24 [1, 9]: 1643.8 ± 392.9 ng·h/mL
AUCinf [1, 9]: 1815.5 ± 382.4 ng·h/mL
AUC0–24 [1, 10]: 1644.1 ± 440.6 ng·h/mL
AUCinf [1, 10]: 1823.5 ± 444.9 ng·h/mL
AUC(0-t) ([1]; both, human, in vivo, 60 mg, AUC0–24, ABCB1 rs1045642 CC, single 60-mg edoxaban, mean±s.d.): 1610 ± 441 ng·h/mL
AUC(0-t) ([1]; both, human, in vivo, 60 mg, AUC0–24, ABCB1 rs1045642 TT, single 60-mg edoxaban, mean±s.d.): 1680 ± 442 ng·h/mL
AUC(0-inf) ([1]; both, human, in vivo, 60 mg, ABCB1 rs1045642 CC, single 60-mg edoxaban, mean±s.d.): 1790 ± 450 ng·h/mL
AUC(0-inf) ([1]; both, human, in vivo, 60 mg, ABCB1 rs1045642 TT, single 60-mg edoxaban, mean±s.d.): 1860 ± 436 ng·h/mL
AUC(0-t) ([1]; both, human, in vivo, 60 mg, AUClast, ABCB1 rs1045642 CC, single 60-mg edoxaban, fasting, plasma, mean±s.d.): 1760 ± 447 ng·h/mL
AUC(0-t) ([1]; both, human, in vivo, 60 mg, AUClast, ABCB1 rs1045642 CT, single 60-mg edoxaban, fasting, plasma, mean±s.d.): 1810 ± 417 ng·h/mL
AUC(0-t) ([1]; both, human, in vivo, 60 mg, AUClast, ABCB1 rs1045642 TT, single 60-mg edoxaban, fasting, plasma, mean±s.d.): 1820 ± 435 ng·h/mL
AUC(0-t) ([1]; both, human, in vivo, 60 mg, AUClast, SLCO1B1 rs4149056 C-carriers, single 60-mg edoxaban, mean±s.d.): 1780 ± 381 ng·h/mL
AUC(0-t) ([1]; both, human, in vivo, 60 mg, AUClast, SLCO1B1 rs4149056 TT, single 60-mg edoxaban, mean±s.d.): 1790 ± 443 ng·h/mL
concentration at 24 h ([1]; both, human, in vivo, 60 mg, C24, ABCB1 rs1045642 CC, plasma concentration at 24 h postdose, single 60-mg edoxaban, mean±s.d.): 12.5 ± 5.11 ng/mL
concentration at 24 h ([1]; both, human, in vivo, 60 mg, C24, ABCB1 rs1045642 TT, plasma concentration at 24 h postdose, single 60-mg edoxaban, mean±s.d.): 12.3 ± 6.46 ng/mL
concentration at 24 h ([1]; both, human, in vivo, 60 mg, C24, SLCO1B1 rs4149056 C-carriers, 24 h postdose, single 60-mg edoxaban, mean±s.d.): 11.6 ± 4.8 ng/mL
concentration at 24 h ([1]; both, human, in vivo, 60 mg, C24, SLCO1B1 rs4149056 TT, 24 h postdose, single 60-mg edoxaban, mean±s.d.): 12.3 ± 5.4 ng/mL
Cmax ([1]; both, human, in vivo, 60 mg, Cmax, ABCB1 rs1045642 TT, single 60-mg edoxaban, mean±s.d.): 261 ± 101 ng/mL
effect of ABCB1 C3435T SNP on exposure [1, 11]: does not significantly affect
effect of SLCO1B1 T521C SNP on exposure [1, 11]: does not influence
Structure (SMILES): CN1CCc2nc(C(=O)N[C@@H]3C[C@@H](C(=O)N(C)C)CC[C@@H]3NC(=O)C(=O)Nc3ccc(Cl)cn3)sc2C1 [Edoxaban, edoxaban]
tolerability [2]: generally well tolerated
substrate of P-glycoprotein [3]: substrate
absorbed dose renally eliminated [4]: ~ 50%
absorbed drug eliminated unmodified [4]: ~73%

geometric LS means ratio, AUCinf [1, 12]: 126.9 (90% CI, 117.4–137.1)
geometric LS means ratio, C24 [1, 12]: 114.9 (90% CI, 104.0–127.0)
geometric LS means ratio, Cmax [1, 12]: 124.1 (90% CI, 111.9–137.5)
C24 ([1]; SLCO1B1 rs4149056 C-carriers, 24 h postdose, single 60-mg edoxaban, mean±s.d.): 1.3 ± 0.74 ng/mL
AUC0–24 [1, 9]: 170.0 ± 73.0 ng·h/mL
AUCinf [1, 9]: 191.9 ± 76.4 ng·h/mL
AUClast [1, 9]: 184.6 ± 75.6 ng·h/mL
Cmax [1, 9]: 26.7 ± 13.6 ng/mL
C24 ([1]; SLCO1B1 rs4149056 TT, 24 h postdose, single 60-mg edoxaban, mean±s.d.): 1.1 ± 0.57 ng/mL
MPR AUCinf (metabolite to parent ratio) [1, 13]: 8.7±2.9
MPR AUClast (metabolite to parent ratio) [1, 13]: 8.7±2.9
MPR Cmax (metabolite to parent ratio) [1, 13]: 8.8±3.1
AUC0–24 [1, 10]: 134.7 ± 57.2 ng·h/mL
AUCinf [1, 10]: 150.2 ± 61.4 ng·h/mL
AUClast [1, 10]: 147.1 ± 60.7 ng·h/mL
Cmax [1, 10]: 21.2 ± 10.7 ng/mL
plasma M4 concentration as share of edoxaban levels ([1]; plasma, healthy subjects): < 10%
effect of SLCO1B1 T521C SNP on exposure [1, 11]: elevated among C-carriers
Structure (SMILES): CN1CCc2nc(C(=O)N[C@@H]3C[C@@H](C(=O)O)CC[C@@H]3NC(=O)C(=O)Nc3ccc(Cl)cn3)sc2C1 [M4]
anticoagulant activity compared with edoxaban [5]: similar
levels on coadministration of cyclosporine or rifampin [6]: increase
share of the total anticoagulant exposure [4]: < 10%
substrate of OATP1B1 [7]: substrate
